# According to US20220324835A1 (Nurix Therapeutics, Inc., priority 2018, published 2022):
# Where two headings read alike, the source gives them in different places.
# Assays:
# Assay type in all cases: cell-based
# [1] = test system: primary human NK cells; test: NK cell activation assessed by cytokine secretion (coculture with K562 NucRed target cells); details: for fold induction at 0.625 µM: 0.625 μM compound; for fold induction at 2.5 µM: 2.5 μM compound
# Outline: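 Primary NK cells from donor PBMC, IL-2 (60 ng/mL) overnight, then Cbl-b inhibitor (e.g. 10, 1 or 0.1 μM; DMSO <0.1%) for 1 h before 6 h coculture with K562 NucRed at effector:target ratios such as 5:1, 1:1 or 1:5. Supernatant IFNγ, TNFα, MIP1β measured by ELISA or Luminex; fold change over inhibitor-free baseline, >2.0-fold positive.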
# [2] = test system: primary human total T-cells; test: T-cell activation assessed by CD69 expression
# Outline: (§1)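 Readouts are fold change versus compound-free cells under the same stimulation: plate-bound anti-CD3 (OKT3, 10 μg/mL coating) alone or with soluble anti-CD28 at 5 μg/mL, for 48 h. Isolated human total T cells (1×10^5/well) got inhibitor 1 h beforehand at concentrations such as 10, 1.11 or 0.123 μM. Measured: GM-CSF/IFNγ/TNFα secretion, surface CD69, proliferation by dye dilution.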
# [3] = test system: primary human total T-cells; test: T-cell activation assessed by cell proliferation (Cell Trace Violet)
# Outline: as §1
# [4] = K562, NK cells cocultured with K562 NucRed, 1:1 E/T, read-out: IFNγ secretion, fold change over baseline
# [5] = K562, NK cells cocultured with K562 NucRed, 1:1 E/T, read-out: TNFα secretion, fold change over baseline
# [6] = K562, NK cells cocultured with K562 NucRed, 1:1 E/T, 10 μM compound, read-out: IFNγ secretion, fold change over baseline
# [7] = K562, NK cells cocultured with K562 NucRed, 1:1 E/T, 10 μM compound, read-out: TNFα secretion, fold change over baseline
# [8] = CD3/CD28 stimulation, CD4 T-cells, read-out: % CD69+ (CD4)
# [9] = CD3/CD28 stimulation, CD8 T-cells, read-out: % CD69+ (CD8)
# [10] = CD3 alone stimulation, CD4 T-cells, read-out: % CD69+ (CD4)
# [11] = CD3 alone stimulation, CD8 T-cells, read-out: % CD69+ (CD8)
# [12] = CD3/CD28 stimulation, CD4 T-cells, read-out: % CP (cell proliferation) (CD4)
# [13] = CD3/CD28 stimulation, CD8 T-cells, read-out: % CP (cell proliferation) (CD8)
# [14] = CD3 alone stimulation, CD8 T-cells, read-out: % CP (cell proliferation) (CD8)
# [15] = K562, 1:1 E/T, read-out: IFNγ secretion
# [16] = K562, 1:1 E/T, read-out: MIP1β secretion
# [17] = K562, 1:1 E/T, read-out: TNFα secretion
# [18] = K562, 1:1 E/T, 10 μM, read-out: IFNγ secretion
# [19] = K562, 1:1 E/T, 10 μM, read-out: MIP1β secretion
# [20] = K562, 1:1 E/T, 10 μM, read-out: TNFα secretion
# [21] = K562, 5:1 E/T, read-out: IFNγ secretion
# [22] = K562, 5:1 E/T, read-out: MIP1β secretion
# [23] = K562, 5:1 E/T, read-out: TNFα secretion
# [24] = K562, 5:1 E/T, 10 μM, read-out: IFNγ secretion
# [25] = K562, 5:1 E/T, 10 μM, read-out: MIP1β secretion
# [26] = K562, 5:1 E/T, 10 μM, read-out: TNFα secretion
Compound,"fold induction at 0.625 µM [1, 4]","fold induction at 0.625 µM [1, 5]","fold induction at 2.5 µM [1, 4]","fold induction at 2.5 µM [1, 5]","fold induction at 10 µM [1, 6]","fold induction at 10 µM [1, 7]","fold induction at 1.11 µM [2, 8]","fold induction at 10 µM [2, 8]","fold induction at 1.11 µM [2, 9]","fold induction at 10 µM [2, 9]","fold induction at 1.11 µM [2, 10]","fold induction at 10 µM [2, 10]","fold induction at 1.11 µM [2, 11]","fold induction at 10 µM [2, 11]","fold induction at 1.11 µM [3, 12]","fold induction at 10 µM [3, 12]","fold induction at 1.11 µM [3, 13]","fold induction at 10 µM [3, 13]","fold induction at 1.11 µM [3, 14]","fold induction at 10 µM [3, 14]",further results
"C[C@H](Cc1nncn1C)c1ccnc(NC(=O)c2cccc(C(F)(F)F)n2)c1 [Compound 302, (R)-N-(4-(1-(4-methyl-4H-1,2,4-triazol-3-yl)propan-2-yl)pyridin-2-yl)-6-(trifluoromethyl)picolinamide]",< 1,1.01 to 2,1.01 to 2,1.01 to 2,2.01 to 5,1.01 to 2,,,,,,,,,,,,,,,
"C[C@H](Cc1nncn1C)c1cccc(NC(=O)c2nc(C(F)(F)F)c[nH]2)c1 [Compound 326, (R)-N-(3-(1-(4-methyl-4H-1,2,4-triazol-3-yl)propan-2-yl)phenyl)-4-(trifluoromethyl)-1H-imidazole-2-carboxamide]",1.01 to 2,1.01 to 2,2.01 to 5,2.01 to 5,2.01 to 5,2.01 to 5,1.2 to 1.4,1.4 to 1.6,≤ 1.2,1.2 to 1.4,1.2 to 1.4,1.4 to 1.6,≤ 1.2,1.2 to 1.4,2.01 to 3,> 4,2.01 to 3,3.01 to 4,2.01 to 3,> 4,
"C[C@H](Sc1nncn1C)c1cccc(NC(=O)c2cc(C(=O)N3CC[C@H](O)C3)ccn2)c1 [Compound 140, 4-[[(3S)-3-hydroxypyrrolidin-1-yl]carbonyl]-N-[3-[(1S)-1-[(4-methyl-4H-1,2,4-triazol-3-yl)sulfanyl]ethyl]phenyl]pyridine-2-carboxamide]",< 1,< 1,< 1,< 1,1.01 to 2,< 1,1.4 to 1.6,> 1.6,1.2 to 1.4,1.2 to 1.4,> 1.6,> 1.6,1.4 to 1.6,1.4 to 1.6,> 4,> 4,> 4,> 4,> 4,> 4,
"Cc1cc2c(c(C3CC3)n1)CN(c1cccc([C@H](C)Cc3nncn3C)c1)C2=O [Compound 372, 4-cyclopropyl-6-methyl-2-{3-[(2R)-1-(4-methyl-4H-1,2,4-triazol-3-yl)propan-2-yl]phenyl}-1H,2H,3H-pyrrolo[3,4-c]pyridin-1-one]",1.01 to 2,< 1,1.01 to 2,< 1,2.01 to 5,1.01 to 2,≤ 1.2,1.2 to 1.4,≤ 1.2,1.2 to 1.4,≤ 1.2,1.2 to 1.4,≤ 1.2,1.2 to 1.4,< 2,> 4,< 2,2.01 to 3,< 2,2.01 to 3,
"C[C@H](Cc1nncn1C)c1cccc(N2Cc3c(ccnc3C3CC3)C2=O)c1 [Compound 257, 4-cyclopropyl-2-[3-[(1R)-1-methyl-2-(4-methyl-1,2,4-triazol-3-yl)ethyl]phenyl]-3H-pyrrolo[3,4-c]pyridin-1-one]",1.01 to 2,1.01 to 2,2.01 to 5,1.01 to 2,2.01 to 5,2.01 to 5,≤ 1.2,1.4 to 1.6,≤ 1.2,1.2 to 1.4,≤ 1.2,1.2 to 1.4,≤ 1.2,1.2 to 1.4,2.01 to 3,> 4,< 2,3.01 to 4,< 2,3.01 to 4,
"Cn1cnnc1C(F)(F)[C@](C)(F)c1cccc(N2Cc3c(cccc3C(F)(F)F)C2=O)c1 [Compound 296a, (R)-2-(3-(1,1,2-trifluoro-1-(4-methyl-4H-1,2,4-triazol-3-yl)propan-2-yl)phenyl)-4-(trifluoromethyl)isoindolin-1-one]",,,,,,,,,,,,,,,,,,,,,"fold induction at 1 µM [1, 15]: 1.01 to 2; fold induction at 1 µM [1, 16]: < 1; fold induction at 1 µM [1, 17]: < 1; fold induction at 10 µM [1, 18]: 2.01 to 5; fold induction at 10 µM [1, 19]: < 1; fold induction at 10 µM [1, 20]: 1.01 to 2; fold induction at 1 µM [1, 21]: < 1; fold induction at 1 µM [1, 22]: < 1; fold induction at 1 µM [1, 23]: < 1; fold induction at 10 µM [1, 24]: 1.01 to 2; fold induction at 10 µM [1, 25]: < 1; fold induction at 10 µM [1, 26]: < 1"
"C[C@H](Cc1nncn1C)c1cccc(NC(=O)c2cccc(CCO)n2)c1 [Compound 202, 6-(2-hydroxyethyl)-N-[3-[(2R)-1-(4-methyl-4H-1,2,4-triazol-3-yl)propan-2-yl]phenyl]pyridine-2-carboxamide]",1.01 to 2,< 1,1.01 to 2,1.01 to 2,2.01 to 5,1.01 to 2,≤ 1.2,1.2 to 1.4,≤ 1.2,≤ 1.2,≤ 1.2,1.2 to 1.4,≤ 1.2,≤ 1.2,< 2,3.01 to 4,< 2,2.01 to 3,< 2,< 2,
"C[C@H](Cc1nncn1C)c1cccc(NC(=O)c2ccnc(C(F)(F)F)n2)c1 [Compound 187, (R)-N-(3-(1-(4-methyl-4H-1,2,4-triazol-3-yl)propan-2-yl)phenyl)-2-(trifluoromethyl)pyrimidine-4-carboxamide]",,,,,,,,,,,,,,,,,,,,,"fold induction at 1 µM [1, 15]: 1.01 to 2; fold induction at 1 µM [1, 16]: 1.01 to 2; fold induction at 1 µM [1, 17]: < 1; fold induction at 10 µM [1, 18]: 2.01 to 5; fold induction at 10 µM [1, 19]: 2.01 to 5; fold induction at 10 µM [1, 20]: 2.01 to 5; fold induction at 1 µM [1, 21]: 2.01 to 5; fold induction at 1 µM [1, 22]: 1.01 to 2; fold induction at 1 µM [1, 23]: 2.01 to 5; fold induction at 10 µM [1, 24]: > 5; fold induction at 10 µM [1, 25]: 2.01 to 5; fold induction at 10 µM [1, 26]: > 5"
